Data from article PMC7187627 (Antimicrobial Agents and Chemotherapy, 2019).

Test: Safety and tolerability (adverse events, laboratory tests, ECG), multiple-ascending-dose phase 1 study
Format: in vivo
From the text: Subjects were monitored closely with serial physical examinations, blood evaluations, and 12-lead ECGs. Subjects underwent safety laboratory testing, including measurement of blood cell counts (white blood cell [WBC] with differential, hemoglobin, and platelets), serum chemistry (sodium, potassium, chloride, calcium, bicarbonate, glucose, creatinine, blood urea nitrogen [BUN], creatine kinase [CK], aspartate aminotransferase [AST], alanine aminotransferase [ALT], alkaline phosphatase [ALP], total bilirubin, protein, albumin, amylase, and lipase) and urinalysis (protein, blood, and glucose). Study halting criteria had been established and were reviewed by an independent safety monitor (ISM) and the Safety Monitoring Committee (SMC) prior to proceeding with dosing within a cohort or to the next cohort.
The safety population included all subjects who received at least one dose of the study drug. The safety and tolerability of CRS3123 were evaluated by the sequential review of reported adverse events (AEs), changes from baseline in physical examination findings, vital sign measurements, safety laboratory tests (hematology, clinical chemistry, and urinalysis), and key 12-lead ECG findings. All safety assessments were summarized with descriptive statistics or frequency counts.
The period of observation for AE reporting began on day 1 at the time of study drug administration and continued through the final visit.
All AEs were coded to system organ class (SOC) and preferred term (PT) using the Medical Dictionary for Regulatory Activities (MedDRA), version 17.0 (https://www.meddra.org/). A treatment-emergent AE (TEAE) was defined as any AE that occurred during the study observation period (i.e., from day 1 at the time of study drug administration through the final visit). An AE with a partial onset date was classified as a TEAE if the reported partial onset date could not definitely be identified as before the date of study drug administration. Any AE with a missing onset date or missing time on day of study drug administration was classified as a TEAE.
To count the overall number of subjects who experienced each TEAE and calculation of an occurrence rate, a subject experiencing multiple occurrences of an AE was counted only once for that PT. Similarly, if a subject experienced multiple TEAEs within the same SOC, that subject was counted once to calculate an occurrence rate for the SOC. To count the number of subjects who experienced each TEAE by severity classification (mild, moderate, severe, and life-threatening) and calculate an occurrence rate, a subject experiencing multiple occurrences of an AE of the same severity was counted once in that particular severity classification for that PT. If a subject experienced multiple occurrences of an AE of differing severities, only the most severe occurrence within each PT was counted.

[1] = all TEAEs, Cohort B, 400 mg Q12h (n = 8)
[2] = all TEAEs, Cohort C, 600 mg Q12h (n = 8)
[3] = treatment-related AEs, All active (n = 24)
[4] = treatment-related AEs, Cohort A, 200 mg Q12h (n = 8)
[5] = treatment-related AEs, Cohort B, 400 mg Q12h (n = 8)
[6] = treatment-related AEs, Cohort C, 600 mg Q12h (n = 8)

With `O=c1cc(NCCCN[C@@H]2CCOc3c(Br)cc(Br)cc32)[nH]c2ccsc12` [CRS3123] the “No. (%) of subjects: Dry skin” value [1] was 1 (12.5), the “No. (%) of subjects: Dysgeusia” value [1] was 1 (12.5) and the “No. (%) of subjects: Ear and labyrinth disorders (system organ class)” value [1] was 0 (0.0). The “No. (%) of subjects: Ear discomfort” value [1] was 0 (0.0), the “No. (%) of subjects: Erythema” value [1] was 1 (12.5) and the “No. (%) of subjects: Gastrointestinal disorders (system organ class)” value [1] was 2 (25.0). For the same molecule, the “No. (%) of subjects: General disorders and administration site conditions (system organ class)” value [1] was 0 (0.0), the “No. (%) of subjects: Headache” value [1] was 1 (12.5) and the “No. (%) of subjects: Hemoglobin decreased” value [1] was 1 (12.5). For the same molecule, the “No. (%) of subjects: Infections and infestations (system organ class)” value [1] was 0 (0.0), the “No. (%) of subjects: Infusion site thrombosis” value [1] was 0 (0.0) and the “No. (%) of subjects: Injury, poisoning, and procedural complications (system organ class)” value [1] was 0 (0.0). For the same molecule, the “No. (%) of subjects: Investigations (system organ class)” value (“No. (%) of subjects: Investigations” for short) [1] was 4 (50.0), the “No. (%) of subjects: Lipase increased” value [1] was 2 (25.0) and the “No. (%) of subjects: Myalgia” value [1] was 1 (12.5). The “No. (%) of subjects: Nervous system disorders (system organ class)” value [1] was 2 (25.0), the “No. (%) of subjects: Oropharyngeal pain” value [1] was 0 (0.0) and the “No. (%) of subjects: Psychiatric disorders (system organ class)” value [1] was 0 (0.0). For the same molecule, the “No. (%) of subjects: Respiratory, thoracic, and mediastinal disorders (system organ class)” value [1] was 1 (12.5), the “No. (%) of subjects: Skin and subcutaneous tissue disorders (system organ class)” value [1] was 2 (25.0) and the “No. (%) of subjects: Subjects with TEAEs” value [1] was 6 (75.0). For the same molecule, the “No. (%) of subjects: Throat irritation” value [1] was 1 (12.5), the “No. (%) of subjects: Upper respiratory tract infection” value [1] was 0 (0.0) and the “No. (%) of subjects: White blood cell count increased” value [1] was 0 (0.0). For the same molecule, the “No. (%) of subjects: Alanine aminotransferase increased” value [2] was 2 (25.0), the “No. (%) of subjects: Amylase increased” value [2] was 1 (12.5) and the “No. (%) of subjects: Anxiety” value [2] was 0 (0.0). For the same molecule, the “No. (%) of subjects: Arthropod bite” value [2] was 0 (0.0), the “No. (%) of subjects: Aspartate aminotransferase increased” value [2] was 2 (25.0) and the “No. (%) of subjects: Blood bilirubin increased” value [2] was 1 (12.5). The “No. (%) of subjects: Blood calcium increased” value [2] was 0 (0.0), the “No. (%) of subjects: Blood potassium increased” value [2] was 0 (0.0) and the “No. (%) of subjects: Blood pressure, diastolic, decreased” value [2] was 1 (12.5). For the same molecule, the “No. (%) of subjects: Blood pressure, diastolic, increased” value [2] was 1 (12.5), the “No. (%) of subjects: Blood pressure, systolic, decreased” value [2] was 0 (0.0) and the “No. (%) of subjects: Blood pressure, systolic, increased” value [2] was 1 (12.5). For the same molecule, the “No. (%) of subjects: Diarrhea” value [2] was 0 (0.0), the “No. (%) of subjects: Dry skin” value [2] was 0 (0.0) and the “No. (%) of subjects: Dysgeusia” value [2] was 0 (0.0). For the same molecule, the “No. (%) of subjects: Ear and labyrinth disorders (system organ class)” value [2] was 0 (0.0), the “No. (%) of subjects: Ear discomfort” value [2] was 0 (0.0) and the “No. (%) of subjects: Erythema” value [2] was 0 (0.0). For the same molecule, the “No. (%) of subjects: Gastrointestinal disorders (system organ class)” value [2] was 0 (0.0), the “No. (%) of subjects: General disorders and administration site conditions (system organ class)” value [2] was 1 (12.5) and the “No. (%) of subjects: Headache” value [2] was 0 (0.0). For the same molecule, the “No. (%) of subjects: Hemoglobin decreased” value [2] was 1 (12.5), the “No. (%) of subjects: Infections and infestations (system organ class)” value [2] was 0 (0.0) and the “No. (%) of subjects: Infusion site thrombosis” value [2] was 1 (12.5). The “No. (%) of subjects: Injury, poisoning, and procedural complications (system organ class)” value [2] was 0 (0.0), the “No. (%) of subjects: Investigations” value [2] was 6 (75.0) and the “No. (%) of subjects: Lipase increased” value [2] was 2 (25.0). For the same molecule, the “No. (%) of subjects: Musculoskeletal and connective tissue disorders (system organ class)” value [2] was 0 (0.0), the “No. (%) of subjects: Myalgia” value [2] was 0 (0.0) and the “No. (%) of subjects: Nervous system disorders (system organ class)” value [2] was 0 (0.0). For the same molecule, the “No. (%) of subjects: Oropharyngeal pain” value [2] was 1 (12.5), the “No. (%) of subjects: Psychiatric disorders (system organ class)” value [2] was 0 (0.0) and the “No. (%) of subjects: Respiratory, thoracic, and mediastinal disorders (system organ class)” value [2] was 1 (12.5). For the same molecule, the “No. (%) of subjects: Skin and subcutaneous tissue disorders (system organ class)” value [2] was 0 (0.0), the “No. (%) of subjects: Subjects with TEAEs” value [2] was 6 (75.0) and the “No. (%) of subjects: Throat irritation” value [2] was 0 (0.0). The “No. (%) of subjects: Upper respiratory tract infection” value [2] was 0 (0.0), the “No. (%) of subjects: White blood cell count increased” value [2] was 0 (0.0) and the “withdrawals due to TEAEs” value (all doses) was “No subjects were withdrawn”. The “No. (%) of subjects: Alanine aminotransferase increased” value [3] was 1 (4.2), the “No. (%) of subjects: Diarrhea” value [3] was 1 (4.2) and the “No. (%) of subjects: Dysgeusia” value [3] was 1 (4.2). For the same molecule, the “No. (%) of subjects: Gastrointestinal disorders (system organ class)” value [3] was 1 (4.2), the “No. (%) of subjects: Investigations” value [3] was 1 (4.2) and the “No. (%) of subjects: Lipase increased” value [3] was 0 (0.0). For the same molecule, the “No. (%) of subjects: Nervous system disorders (system organ class)” value [3] was 1 (4.2), the “No. (%) of subjects: Subjects with TEAEs” value [3] was 3 (12.5) and the “No. (%) of subjects: Alanine aminotransferase increased” value [4] was 0 (0.0). The “No. (%) of subjects: Diarrhea” value [4] was 0 (0.0), the “No. (%) of subjects: Dysgeusia” value [4] was 0 (0.0) and the “No. (%) of subjects: Gastrointestinal disorders (system organ class)” value [4] was 0 (0.0). The “No. (%) of subjects: Investigations” value [4] was 0 (0.0), the “No. (%) of subjects: Lipase increased” value [4] was 0 (0.0) and the “No. (%) of subjects: Nervous system disorders (system organ class)” value [4] was 0 (0.0). For the same molecule, the “No. (%) of subjects: Alanine aminotransferase increased” value [5] was 0 (0.0), the “No. (%) of subjects: Diarrhea” value [5] was 1 (12.5) and the “No. (%) of subjects: Dysgeusia” value [5] was 1 (12.5). For the same molecule, the “No. (%) of subjects: Gastrointestinal disorders (system organ class)” value [5] was 1 (12.5), the “No. (%) of subjects: Investigations” value [5] was 0 (0.0) and the “No. (%) of subjects: Lipase increased” value [5] was 0 (0.0). For the same molecule, the “No. (%) of subjects: Nervous system disorders (system organ class)” value [5] was 1 (12.5), the “No. (%) of subjects: Alanine aminotransferase increased” value [6] was 1 (12.5) and the “No. (%) of subjects: Diarrhea” value [6] was 0 (0.0). The “No. (%) of subjects: Dysgeusia” value [6] was 0 (0.0), the “No. (%) of subjects: Gastrointestinal disorders (system organ class)” value [6] was 0 (0.0) and the “No. (%) of subjects: Investigations” value [6] was 1 (12.5). For the same molecule, the “No. (%) of subjects: Lipase increased” value [6] was 0 (0.0), the “No. (%) of subjects: Nervous system disorders (system organ class)” value [6] was 0 (0.0) and the “severity of TEAEs” value (whole study) was “majority of TEAEs reported in the study were of mild severity”.
